Experiments:
Lactobacilli = test: Continuous culture chemostat with faecal inocula and antimicrobials; type: cell-based; conditions: 1 gl^−1 in medium
Method: (§1) (i) Continuous culture system: Three chemostats are set up in a parallel; each is maintained under nitrogen gas, at 37° C., pH 6.5 and a dilution rate of 0.066 h^−1. These conditions are set to resemble conditions typically found in the distal region of the human colon. The chemostats are fed with a control growth medium which comprised (gl^−1 in distilled water): yeast extract 2, peptone water 2, NaCl 0.1, K2HPO4 0.04, KH2PO4 0.04, MgSO4.7H2O 0.01, CaCl2.H2O 0.01, NaHCO3 2, Tween 80 2, hemin 0.05, Vitamin K1 0.01, cysteine.HCl 0.5, bile salts 0.5, glucose 0.4, starch 3, pectin 2 and arabinogalactan 1. The medium is autoclaved at 121° C. for 30 min and, whilst still hot, placed under nitrogen gas. After the medium has cooled, 1 gl^−1 of filter sterilised tetracycline or 1 gl^−1 of filter sterilised nystatin is aseptically added to the medium reservoir. Control chemostats with no antimicrobials added are also run. […]
(§2) (iii) Microbial culture techniques: A sample is taken from each fecal slurry used as inocula and 1 ml samples are also removed from each chemostat when the fermentation system has reached steady state (after 164 h). […] After 24-48 h of Incubation aerobic colonies are counted and after 48-72 h of incubation anaerobic plates are enumerated. […]

yeasts = test: as above; type: cell-based; conditions: 1 gl^−1 in medium, compared to control chemostats
Method: as §1, §2

C[C@@H]1[C@H](O)[C@@H](C)/C=C/C=C/CC/C=C/C=C/C=C/C=C/C(O[C@H]2O[C@H](C)[C@@H](O)[C@H](N)[C@@H]2O)CC2O[C@](O)(CC(O)C(O)CCC(O)CC(O)CC(O)CC(=O)O[C@H]1C)CC(O)C2C(=O)O (some centres unmarked) [nystatin]
effect on lactobacilli (Lactobacilli): reduction in lactobacilli
effect on yeasts (yeasts): yeasts are inhibited
